In patent US20260325533A1, “CDK INHIBITOR COMPOUNDS” (ALEKSIA THERAPEUTICS, INC., priority 2023, published 2026):
Read-outs that look alike come from different tables or passages of the source.

How the values were obtained:
CDK2/CCNE1 = CDK2/CCNE1 (Homo sapiens, UniProt P24941); assay: CDK2 homogeneous time-resolved fluorescence (HTRF) kinase assay; format: biochemical
How it was run: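 An HTRF format measures CDK2/CCNE1 (3 nM) phosphorylating a 4E-BP1 Thr37/46 peptide at high (1 mM) ATP. Reactions run one hour at 23 °C, then EDTA-quenched and probed with Eu-labelled phospho-specific antibody.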

CDK1/CCNB1 = CDK1/CCNB1 (Homo sapiens, UniProt P06493); assay: CDK1 homogeneous time-resolved fluorescence (HTRF) kinase assay; format: biochemical
Sequence of CDK1/CCNB1 (P06493 whole entry): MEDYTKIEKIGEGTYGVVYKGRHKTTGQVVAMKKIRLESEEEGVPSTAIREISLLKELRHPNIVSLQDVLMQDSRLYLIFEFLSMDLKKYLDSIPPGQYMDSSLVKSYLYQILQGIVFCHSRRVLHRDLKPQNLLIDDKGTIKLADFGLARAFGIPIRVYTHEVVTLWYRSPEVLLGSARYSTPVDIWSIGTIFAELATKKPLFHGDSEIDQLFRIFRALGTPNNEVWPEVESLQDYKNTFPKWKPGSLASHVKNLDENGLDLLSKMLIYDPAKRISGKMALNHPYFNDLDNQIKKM
Sequence of CDK1/CCNB1 (P14635 whole entry partner): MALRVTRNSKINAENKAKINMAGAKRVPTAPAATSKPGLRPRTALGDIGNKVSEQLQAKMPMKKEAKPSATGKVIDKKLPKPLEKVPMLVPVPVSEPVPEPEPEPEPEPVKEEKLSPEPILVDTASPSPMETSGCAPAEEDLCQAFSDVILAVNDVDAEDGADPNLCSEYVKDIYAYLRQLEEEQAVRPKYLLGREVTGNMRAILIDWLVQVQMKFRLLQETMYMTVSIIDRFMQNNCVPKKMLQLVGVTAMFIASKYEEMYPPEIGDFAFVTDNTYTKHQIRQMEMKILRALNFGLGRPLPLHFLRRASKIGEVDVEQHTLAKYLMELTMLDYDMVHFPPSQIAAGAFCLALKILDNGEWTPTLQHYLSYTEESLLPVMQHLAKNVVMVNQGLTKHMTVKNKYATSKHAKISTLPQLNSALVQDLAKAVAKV
How it was run: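 CDK1/CCNB1 0.5 nM + cpd, 20 min 23 °C; add 1 mM ATP, 50 nM ULight-4E-BP1 peptide, 60 min 23 °C; stop 10 mM EDTA; 2 nM Eu-Ab, 60 min; HTRF 665 nm. 11-pt half-log, top 10 μM typical; IC50.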

[1] = CDK2/CCNE, >250 nM marked x, read-out: CDK2/CCNE IC50 >250 nM
[2] = CDK1/CCNB, >250 nM marked x, read-out: CDK1/CCNB IC50 >250 nM
[3] = CDK2/CCNE, 25-250 nM marked x, read-out: CDK2/CCNE IC50 25-250 nM

IC50 (CDK2/CCNE1; [1]) [nM] | IC50 (CDK1/CCNB1; [2]) [nM] | IC50 (CDK2/CCNE1; [3]) [nM] | further results | SMILES
> 250 | > 250 |  |  | CS(=O)(=O)N1CCC(Nc2cc3c(C(=O)N4CCC(O)CC4)nccc3cn2)CC1 [Example 12, (4-hydroxypiperidin-1-yl)(7-((1-(methylsulfonyl)piperidin-4-yl)amino)-2,6-naphthyridin-1-yl)methanone]
 | > 250 | 25 to 250 |  | CS(=O)(=O)c1ccc(Nc2cc3c(-c4ccc5c(c4)C4(CC4)C(=O)N5)nccc3cn2)cc1 [Ex 163, 5'-(7-((4-(methylsulfonyl)phenyl)amino)-2,6-naphthyridin-1-yl)spiro[cyclopropane-1,3'-indolin]-2'-one]
 | > 250 | 25 to 250 |  | CCCNC(=O)[C@H]1CC[C@H](c2nccc3cnc(Nc4ccc(S(C)(=O)=O)cc4)cc32)CC1 [Ex 180, (1r,4r)-4-(7-((4-(methylsulfonyl)phenyl)amino)-2,6-naphthyridin-1-yl)-N-propylcyclohexane-1-carboxamide]
 | > 250 | 25 to 250 |  | CS(=O)(=O)c1ccc(Nc2cc3c(-c4cc5cc[nH]c5cn4)nccc3cn2)cc1 [Ex 135, N-(4-(methylsulfonyl)phenyl)-5-(1H-pyrrolo[2,3-c]pyridin-5-yl)-2,6-naphthyridin-3-amine]
 | > 250 | 25 to 250 |  | Cc1c(-c2nccc3cnc(Nc4ccc(S(C)(=O)=O)cc4)cc23)ccc2nn(CCC3CNC3)cc12 [Ex 208, 5-(2-(2-(azetidin-3-yl)ethyl)-4-methyl-2H-indazol-5-yl)-N-(4-(methylsulfonyl)phenyl)-2,6-naphthyridin-3-amine]
> 250 | > 250 |  |  | CNC(=O)N1CCC(c2nccc3cnc(Nc4ccc(S(C)(=O)=O)cc4)cc23)CC1 [Ex 177, N-methyl-4-(7-((4-(methylsulfonyl)phenyl)amino)-2,6-naphthyridin-1-yl)piperidine-1-carboxamide]
 |  | 25 to 250 | IC50 (CDK1/CCNB1; CDK1/CCNB, 25-250 nM marked x, read-out: CDK1/CCNB IC50 25-250 nM): 25 to 250 nM | N#CC1CCN(c2nccc3cnc(Nc4ccc(O)c(CO)c4)cc23)CC1 [Ex 210, 1-(7-((4-hydroxy-3-(hydroxymethyl)phenyl)amino)-2,6-naphthyridin-1-yl)piperidine-4-carbonitrile]
> 250 | > 250 |  |  | CC(C)N1CCC(c2nccc3cnc(Nc4ccc(S(C)(=O)=O)cc4)cc23)CC1 [Ex 170, 5-(1-isopropylpiperidin-4-yl)-N-(4-(methylsulfonyl)phenyl)-2,6-naphthyridin-3-amine]
 |  |  | IC50 (CDK2/CCNE1; CDK2/CCNE, <25 nM, read-out: CDK2/CCNE IC50 <25 nM): < 25 nM; IC50 (CDK1/CCNB1; CDK1/CCNB, <25 nM, read-out: CDK1/CCNB IC50 <25 nM): < 25 nM | N#CC1CCN(c2nccc3cnc(Nc4ccc(C(=O)ON5C(=O)CCC5=O)cc4)cc23)CC1 [Ex 110, 2,5-dioxopyrrolidin-1-yl 4-((5-(4-cyanopiperidin-1-yl)-2,6-naphthyridin-3-yl)amino)benzoate]
 | > 250 | 25 to 250 |  | C=CS(=O)(=O)c1ccc(Nc2cc3c(-c4cccc(C(F)(F)F)c4)nccc3cn2)cc1 [Ex 160, 5-(3-(trifluoromethyl)phenyl)-N-(4-(vinylsulfonyl)phenyl)-2,6-naphthyridin-3-amine]
> 250 | > 250 |  |  | CC(C)S(=O)(=O)N1CCC(c2nccc3cnc(Nc4ccc(S(C)(=O)=O)cc4)cc23)CC1 [Ex 176, 5-(1-(isopropylsulfonyl)piperidin-4-yl)-N-(4-(methylsulfonyl)phenyl)-2,6-naphthyridin-3-amine]
> 250 | > 250 |  |  | CS(=O)(=O)N1CCC(Nc2cc3c(N4CCS(=O)(=O)CC4)nccc3cn2)CC1 [Ex 59, 4-(7-((1-(methylsulfonyl)piperidin-4-yl)amino)-2,6-naphthyridin-1-yl)thiomorpholine 1,1-dioxide]
 | > 250 | 25 to 250 |  | N#CC1CCN(c2nccc3cnc(Nc4cccc(C(=O)ON5C(=O)CCC5=O)c4)cc23)CC1 [Ex 111, 2,5-dioxopyrrolidin-1-yl 3-((5-(4-cyanopiperidin-1-yl)-2,6-naphthyridin-3-yl)amino)benzoate]
> 250 | > 250 |  |  | C=CS(=O)(=O)N1CCC(Nc2cc3c(N4CCCCC4)nccc3cn2)C1 (centres unmarked) [Example 9, 5-(piperidin-1-yl)-N-(1-(vinylsulfonyl)pyrrolidin-3-yl)-2,6-naphthyridin-3-amine]
 | > 250 | 25 to 250 |  | CNC(=O)[C@H]1CC[C@H](c2nccc3cnc(Nc4ccc(S(C)(=O)=O)cc4)cc32)CC1 [Ex 178, (1r,4r)-N-methyl-4-(7-((4-(methylsulfonyl)phenyl)amino)-2,6-naphthyridin-1-yl)cyclohexane-1-carboxamide]
 | > 250 | 25 to 250 |  | CS(=O)(=O)N1CCC(Nc2cc3c(/C(C#N)=C/O)nccc3cn2)CC1 [Ex 80, (Z)-3-hydroxy-2-(7-((1-(methylsulfonyl)piperidin-4-yl)amino)-2,6-naphthyridin-1-yl)acrylonitrile]

IC50 (CDK2/CCNE1; [1]) [nM] | IC50 (CDK1/CCNB1; [2]) [nM] | IC50 (CDK2/CCNE1; [3]) [nM] | further results | SMILES
> 250 | > 250 |  |  | CS(=O)(=O)c1ccc(Nc2cc3c(C4CCN(Cc5ccccc5)CC4)nccc3cn2)cc1 [Ex 172, 5-(1-benzylpiperidin-4-yl)-N-(4-(methylsulfonyl)phenyl)-2,6-naphthyridin-3-amine]
 | > 250 | 25 to 250 |  | CS(=O)(=O)N1CCC(Nc2cc3c(N4CCCCC4CO)nccc3cn2)CC1 (racemic) [Ex 56, (1-(7-((1-(methylsulfonyl)piperidin-4-yl)amino)-2,6-naphthyridin-1-yl)piperidin-2-yl)methanol]
 |  |  | IC50 (CDK2/CCNE1; 3 nM CDK2/CCNE1, 1 mM ATP, read-out: CDK2/CCNE IC50 25-250 nM): 25 to 250 nM; IC50 (CDK1/CCNB1; 0.5 nM CDK1/CCNB1, 1 mM ATP, read-out: CDK1/CCNB IC50 >250 nM): > 250 nM | CS(=O)(=O)c1ccc(Nc2ncc3cccc(C4=CCCCC4)c3n2)cc1 [Example 952, 8-(cyclohex-1-en-1-yl)-N-(4-(methylsulfonyl)phenyl)quinazolin-2-amine]
 | > 250 | 25 to 250 |  | CCN1CCC(c2nccc3cnc(Nc4ccc(S(C)(=O)=O)cc4)cc23)CC1 [Ex 152, 5-(1-ethylpiperidin-4-yl)-N-(4-(methylsulfonyl)phenyl)-2,6-naphthyridin-3-amine]
 | > 250 | 25 to 250 |  | N#CC1CCN(c2nccc3cnc(Nc4ccc(CO)cc4)cc23)CC1 [Ex 132, 1-(7-((4-(hydroxymethyl)phenyl)amino)-2,6-naphthyridin-1-yl)piperidine-4-carbonitrile]
 | > 250 | 25 to 250 |  | C=CS(=O)(=O)c1ccc(Nc2cc3c(-c4ccc(O)cc4)nccc3cn2)cc1 [Ex 157, 4-(7-((4-(vinylsulfonyl)phenyl)amino)-2,6-naphthyridin-1-yl)phenol]
 | > 250 | 25 to 250 |  | CS(=O)(=O)N1CCC(Nc2cc3c(N4CCCCC4)nc(CCO)cc3cn2)CC1 [Example 19, 2-(7-((1-(methylsulfonyl)piperidin-4-yl)amino)-1-(piperidin-1-yl)-2,6-naphthyridin-3-yl)ethan-1-ol]
 | > 250 | 25 to 250 |  | CS(=O)(=O)N1CCC(Nc2cc3c(-c4cccnc4)nccc3cn2)CC1 [Ex 67, N-(1-(methylsulfonyl)piperidin-4-yl)-5-(pyridin-3-yl)-2,6-naphthyridin-3-amine]
 | > 250 | 25 to 250 |  | Cc1c(-c2nccc3cnc(Nc4ccc(S(C)(=O)=O)cc4)cc23)ccc2nn(C3CCOCC3)cc12 [Ex 165, 5-(4-methyl-2-(tetrahydro-2H-pyran-4-yl)-2H-indazol-5-yl)-N-(4-(methylsulfonyl)phenyl)-2,6-naphthyridin-3-amine]
> 250 | > 250 |  |  | COc1ncc(-c2nccc3cnc(NC4CCN(S(C)(=O)=O)CC4)cc23)cn1 [Ex 85, 5-(2-methoxypyrimidin-5-yl)-N-(1-(methylsulfonyl)piperidin-4-yl)-2,6-naphthyridin-3-amine]
> 250 | > 250 |  |  | C=CS(=O)(=O)c1ccc(Nc2cc3c(-c4cccc(OC(F)(F)F)c4)nccc3cn2)cc1 [Ex 161, 5-(3-(trifluoromethoxy)phenyl)-N-(4-(vinylsulfonyl)phenyl)-2,6-naphthyridin-3-amine]
 | > 250 | 25 to 250 |  | Cc1c(-c2nccc3cnc(Nc4ccc(S(C)(=O)=O)cc4)cc23)ccc2nn(CC3CNC3)cc12 [Ex 196, 5-(2-(azetidin-3-ylmethyl)-4-methyl-2H-indazol-5-yl)-N-(4-(methylsulfonyl)phenyl)-2,6-naphthyridin-3-amine]
 | > 250 | 25 to 250 |  | N#CC1CCN(c2nccc3cnc(Nc4cccc(C=O)c4)cc23)CC1 [Ex 140, 1-(7-((3-formylphenyl)amino)-2,6-naphthyridin-1-yl)piperidine-4-carbonitrile]
 | > 250 | 25 to 250 |  | CCNC(=O)[C@H]1CC[C@H](c2nccc3cnc(Nc4ccc(S(C)(=O)=O)cc4)cc32)CC1 [Ex 179, (1r,4r)-N-ethyl-4-(7-((4-(methylsulfonyl)phenyl)amino)-2,6-naphthyridin-1-yl)cyclohexane-1-carboxamide]
> 250 | > 250 |  |  | C=CC(=O)N1CCC(c2nccc3cnc(Nc4ccc(S(C)(=O)=O)cc4)cc23)CC1 [Ex 155, 1-(4-(7-((4-(methylsulfonyl)phenyl)amino)-2,6-naphthyridin-1-yl)piperidin-1-yl)prop-2-en-1-one]
